{
  "source": "ChEMBL document CHEMBL5726212",
  "about": "“Substituted pyridines as inhibitors of human immunodeficiency virus replication” (2019)",
  "assay": "Inhibition of HIV replication: A recombinant NL-RLuc proviral clone was constructed in which a section of the nef gene from NL4-3 was replaced with the Renilla Luciferase gene. This virus is fully infectious and can undergo multiple cycles of replication in cell culture. In addition, the luciferous reporter provides a simple and easy method for quantitating the extent of virus growth and consequently, the antiviral activity of test compounds. The plasmid pNLRLuc contains the proviral NL-Rluc DNA cloned into pUC18 at the PvuII site. The NL-RLuc virus was prepared by transfection of 293T cells with the plasmid pNLRLuc. Transfections were performed using the LipofectAMINE PLUS kit from Invitrogen (Carlsbad, Calif.) according to the manufacturer and the virus generated was titered in MT-2 cells. For susceptibility analyses, the titrated virus was used to infect MT-2 cells in the presence of compound, and after 5 days of incubation, cells were processed and quantitated for virus growth by the amount of expressed luciferase. Assay media was RPMI 1640 supplemented with 10% heat inactivated fetal bovine serum (FBS), 100 units/ml penicillin G/100 units/ml streptomycin, 10 mM HEPES buffer pH 7.55 and 2 mM L-glutamine. The results from at least 2 experiments were used to calculate the EC50 values. Luciferase was quantitated using the Dual Luciferase kit from Promega (Madison, Wis.). Susceptibility of viruses to compounds was determined by incubation in the presence of serial dilutions of the compound. The 50% effective concentration (EC50) was calculated by using the exponential form of the median effect equation where (Fa)=1/[1+(ED50/drug conc.)m] (Johnson V A, Byington R T. Infectivity Assay. In Techniques in HIV Research. ed. Aldovini A, Walker B D. 71-76. New York: Stockton Press.1990).",
  "format": "cell-based",
  "data": [
    {"smiles": "Cc1ccc(CN2CCc3cc(-c4c(C)nc(C)c([C@H](OC(C)(C)C)C(=O)O)c4N4CCC(C)(C)CC4)ccc3C2)cc1C", "values": [
      {"measurement": "EC50", "value": "< 100", "unit": "nM"},
      {"measurement": "EC50", "setting": "HEK-293T", "value": "< 100", "unit": "nM"}
    ]},
    {"smiles": "COc1cc(F)cc(F)c1CN1CCc2cc(-c3c(C)nc(C)c([C@H](OC(C)(C)C)C(=O)O)c3N3CCC(C)(C)CC3)ccc2C1", "values": [
      {"measurement": "EC50", "value": "< 100", "unit": "nM"},
      {"measurement": "EC50", "setting": "HEK-293T", "value": "< 100", "unit": "nM"}
    ]},
    {"smiles": "COc1cc(F)c(CN2CCc3cc(-c4c(C)nc(C)c([C@H](OC(C)(C)C)C(=O)O)c4N4CCC(C)(C)CC4)ccc3C2)c(F)c1", "values": [
      {"measurement": "EC50", "value": "< 100", "unit": "nM"},
      {"measurement": "EC50", "setting": "HEK-293T", "value": "< 100", "unit": "nM"}
    ]}
  ]
}
